Reference: patent US20240124467A1, “FUSED PYRIMIDINE COMPOUNDS AS INHIBITORS OF MENIN-MLL INTERACTION” (Biomea Fusion, Inc., priority 2020, published 2024)
Where two headings read alike, the source gives them in different places.

Key:
Type in all cases: cell-based
MOLM-13 = experiment: Cell proliferation inhibition (CellTiter-Glo), MOLM-13 cells; conditions: Homo sapiens, MOLM-13 (MLL-AF9), Table 3
In short: (§1)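 Leukemia lines in RPMI-1640/10% FBS at 37° C. were exposed in duplicate to seven compound concentrations (5.00×10^−6 to 6.86×10^−9 M), with 0.2% DMSO as 100% proliferation. At day 4 cells were diluted 1:4 in fresh medium containing compound. Viability was read by CellTiter-Glo luminescence at day 4 and day 7.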

MV4-11 = experiment: Cell proliferation inhibition (CellTiter-Glo), MV4-11 cells; conditions: Homo sapiens, MV4-11 (MLL-AF4), Table 3
In short: as §1

OCI-AML3 = experiment: Cell proliferation inhibition (CellTiter-Glo), OCI-AML3 cells; conditions: Homo sapiens
Protocol: (§2) The present example evaluates the ability of compounds described herein, inhibitors of Menin/MLL interaction, to inhibit cell proliferation. The proliferation inhibitory effect was investigated in human MLL-leukemia cells selected on the bases of MLL fusion proteins and listed in the table below.
(§3) ATP is present in all metabolically active cells and is considered as a marker for cell viability and proliferation. The metabolic cell activity was determined using the CellTiter-Glo kit from Promega, an ATP monitoring system based on the production of luminescence by the reaction of ATP with added UltraGlo® recombinant luciferase (Kawano et al., 2016, PLOS One, 8:11(7):e0158888), according to the supplier's experimental recommendations. The assay is based on a 96 well plate format. All experiments were carried out in duplicate in one test occasion.
(§4) Test items were dissolved at 20 mM in DMSO with purity ≥99.9% (Sigma catalog no. D8418) and stored at −20° C. Cells were maintained in RPMI-1640 medium (Invitrogen catalog no. 618700) supplemented with 10% of Heat Inactivated FBS (Invitrogen catalog no. 10500) and 1% Pen-Strep (Invitrogen catalog no. 15140) and cultured at 37° C. in a humidified incubator with 5% CO2. Cell lines were grown in suspension and the cell density was maintained in a range of 5×10^4-1×10^6 viable cells/ml where possible. Cells were pelleted at 130 g×5 min.
(§5) Serial dilutions of compounds 1 to 3 in DMSO 100% were prepared starting from a 2.5 mM solutions (prepared by diluting 1:8 the 20 mM stock solution) to generate a 7 point concentration response curve (CRC). Seven concentrations of test compounds (e.g., 5.00×10^−6-1.67×10^−6-5.56×10^−7-1.85×10^−7-6.17×10^−8-2.06×10^−8-6.86×10^−9 M) were assessed in duplicate in an individual test occasion in parallel in the selected cell lines. KO-539 was used as a reference compound and tested in duplicate at seven similar concentrations. 100% of proliferation was represented by the untreated cells (0.2% DMSO).
(§6) Cell proliferation inhibition was monitored at both the following end points: Day 4 (T4) and Day 7 (T7). For the appropriate cell density during the exponential cell growth and re-supply with fresh compound solution at T4, cells were diluted (1:4) with fresh medium containing the compound concentration (1×).
(§7) For each plate to test, one 0.4 μL copy plate and four 0.3 μL copy plates were stamped into 96-well plates not treated for cell adhesion (Sarstedt—cat. no. 82.1581.001) by acoustic liquid handling (Echo) at a concentration which was 500 fold the final assay concentration. Stamped plates were stored at −20° C.
(§8) On Day 0, the day of the experiment cell line suspensions were counted by Cell Viability Analyser, Vi-CELL (Beckman Coulter AY15292), and diluted with fresh medium to obtain the following cell densities: K-562 500 c/ml, MOLM-13 1,000 c/ml, MV4-11 10,000 c/ml, OCI-AML-3 500 c/ml, and U-937 500-1,000 c/ml. 200 μL/well and 150 μL/well of cell suspension were added into the 0.4 μL/well and 0.3 μL/well compound plates, respectively. Cell plate containing 200 μL/well suspension were incubated at 37° C. in a humidified incubator with 5% CO2. From each well of the 150 μL/well cell assay plate, 100 μL were harvested and transferred into a 96-well Optiplate (Perkin Elmer, cat. no. 6005290). Cell viability was measured as described below.
(§9) On Day 4, 150p/well of fresh medium was added into a new 0.3 μL/well copy compound plates. From each well of the 200 μL/well cell assay plate, 100 μL was sampled for the cell viability measurement as described below. 50p was harvested and added to the 150p/well compound plate prepared as described in the first point to dilute 1:4 the cell suspension. The cell assay plate diluted and containing 200 μL/well suspension was incubated at 37° C. in a humidified incubator with 5% CO2.
(§10) On Day 4, 150p/well of fresh medium was added into a new 0.3 μL/well copy compound plates. […]

K-562 = experiment: Cell proliferation inhibition (CellTiter-Glo), K-562 cells; conditions: Homo sapiens, K-562 (BCR-ABL), Table 3
In short: as §1

U-937 = experiment: Cell proliferation inhibition (CellTiter-Glo), U-937 cells; conditions: Homo sapiens, U-937 (MLL-wt), Table 3
Protocol: as §2, §3, §4, §5, §6, §7, §8, §9, §10

[1] = 96 h, 4 d, read-out: MOLM13 μM 4 d
[2] = 168 h, 7 d, read-out: MOLM13 μM 7 d
[3] = 96 h, 4 d, read-out: MV4-11 IC50 μM 4 d
[4] = 168 h, 7 d, read-out: MV4-11 IC50 μM 7 d
[5] = OCI-AML-3, 96 h, 4 d, Table 3, read-out: OCI-AML3 IC50 μM 4 d
[6] = OCI-AML-3, 168 h, 7 d, Table 3, read-out: OCI-AML3 IC50 μM 7 d
[7] = K562, 96 h, 4 d, read-out: K-562 IC50 μM 4 d
[8] = K562, 168 h, 7 d, read-out: K-562 IC50 μM 7 d
[9] = 96 h, 4 d, read-out: U-937 IC50 μM 4 d
[10] = 168 h, 7 d, read-out: U-937 IC50 μM 7 d

Row | SMILES | IC50 (MOLM-13; [1]) | IC50 (MOLM-13; [2]) | IC50 (MV4-11; [3]) | IC50 (MV4-11; [4]) | IC50 (OCI-AML3; [5]) | IC50 (OCI-AML3; [6]) | IC50 (K-562; [7]) | IC50 (K-562; [8]) | IC50 (U-937; [9]) | IC50 (U-937; [10])
1 | C=CC(=O)Nc1ccc(CC(=O)NC2CCN(c3nc4c(N5CCOCC5)ncnc4[nH]3)CC2)cc1 [Compound B0700-315, N-(4-(2-((1-(6-morpholino-9H-purin-8-yl)piperidin-4-yl)amino)-2-oxoethyl)phenyl)acrylamide] | > 5000 nM | > 5000 nM | > 5 µM | > 5 µM | > 5 µM | > 5 µM | > 5 µM | > 5 µM | > 5 µM | > 5 µM
2 | C=CC(=O)N1CC(N2CCC(NC(=O)Nc3ccc(-c4cc5c(N6CCOCC6)ncnc5[nH]4)cc3)CC2)C1 [Compound B0700-330, 1-(1-(1-acryloylazetidin-3-yl)piperidin-4-yl)-3-(4-(4-morpholino-7H-pyrrolo[2,3-d]pyrimidin-6-yl)phenyl)urea] | 631 nM | 447 nM | 0.646 µM | 0.38 µM | 1.05 µM | 0.813 µM | 4.68 µM | 1 µM | 1.62 µM | 1.05 µM
3 | C=CC(=O)N1CC(N2CCC(CC(=O)Nc3ccc(-c4cc5c(N6CCOCC6)ncnc5[nH]4)cc3)CC2)C1 [Compound B0700-331, 2-(1-(1-acryloylazetidin-3-yl)piperidin-4-yl)-N-(4-(4-morpholino-7H-pyrrolo[2,3-d]pyrimidin-6-yl)phenyl)acetamide] | 55 nM | 30 nM | 0.047 µM | 0.034 µM | 0.251 µM | 0.115 µM | 0.676 µM | 0.129 µM | 0.347 µM | 0.065 µM
4 | C=CC(=O)N1CC(N2CCC[C@H](NC(=O)Nc3ccc(-c4cc5c(N6CCOCC6)ncnc5[nH]4)cc3)C2)C1 [Compound B0700-332, (S)-1-(1-(1-acryloylazetidin-3-yl)piperidin-3-yl)-3-(4-(4-morpholino-7H-pyrrolo[2,3-d]pyrimidin-6-yl)phenyl)urea] | 324 nM | 316 nM | 0.38 µM | 0.151 µM | 0.955 µM | 0.24 µM | 1.86 µM | 1.66 µM | 1.2 µM | 0.457 µM
